Source: the supplement of paper PMC11061612

Assays:
Test in all cases: combination Emax (second highest fraction inhibited in the dose matrix, 72 h); higher = more inhibition; extreme values may be limits of the assay
[1] = tested on: A172 (Glioblastoma)
Procedure, shortened: (§1)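 Bliss excess equals the observed combination effect minus the expected value EA + EB − EA·EB, where EA and EB are the effects of each agent alone. Combination Emax is the second-highest inhibition within the matrix. Inhibition was scaled from CellTiter-Glo 2.0 luminescence, with 0 set by vehicle wells and 1 by blank wells, after 72 hours of two-drug dosing of cells plated in 1536-well plates.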

[2] = tested on: BICR78 (Oral Cavity Carcinoma)
Procedure, shortened: as §1

[3] = tested on: CAL-39 (Other Solid Carcinomas)
Procedure, shortened: as §1

[4] = tested on: D-283MED (Other Solid Carcinomas)
Procedure, shortened: as §1

[5] = tested on: EKVX (Non-Small Cell Lung Carcinoma)
Procedure, shortened: as §1

[6] = tested on: ETK-1 (Biliary Tract Carcinoma)
Procedure, shortened: as §1

[7] = tested on: GDM-1 (Acute Myeloid Leukemia)
Procedure, shortened: as §1

[8] = tested on: H4 (Low Grade Glioma)
Procedure, shortened: as §1

[9] = tested on: HLE (Hepatocellular Carcinoma)
Procedure, shortened: as §1

[10] = tested on: HuO9 (Osteosarcoma)
Procedure, shortened: as §1

[11] = tested on: KG-1 (Acute Myeloid Leukemia)
Procedure, shortened: as §1

[12] = tested on: MCF7 (Breast Carcinoma)
Procedure, shortened: as §1

[13] = tested on: MSTO-211H (Mesothelioma)
Procedure, shortened: as §1

[14] = tested on: NCI-H1688 (Small Cell Lung Carcinoma)
Procedure, shortened: as §1

[15] = tested on: SK-MEL-1 (Melanoma)
Procedure, shortened: as §1

[16] = tested on: SLVL (B-Cell Non-Hodgkin's Lymphoma)
Procedure, shortened: as §1

[17] = tested on: SNU-61 (Colorectal Carcinoma)
Procedure, shortened: as §1

[18] = tested on: TYK-nu (Ovarian Carcinoma)
Procedure, shortened: as §1

[19] = tested on: U-118-MG (Low Grade Glioma)
Procedure, shortened: as §1

[20] = tested on: YT (Other Blood Carcinomas)
Procedure, shortened: as §1

Structure (SMILES)	combination Emax [1]	combination Emax [2]	combination Emax [3]	combination Emax [4]	combination Emax [5]	combination Emax [6]	combination Emax [7]	combination Emax [8]	combination Emax [9]	combination Emax [10]	combination Emax [11]	combination Emax [12]	combination Emax [13]	combination Emax [14]	combination Emax [15]	combination Emax [16]	combination Emax [17]	combination Emax [18]	combination Emax [19]	combination Emax [20]
CC1(C)CCC(CN2CCN(c3ccc(C(=O)NS(=O)(=O)c4ccc(NCC5CCOCC5)c([N+](=O)[O-])c4)c(Oc4cnc5[nH]ccc5c4)c3)CC2)=C(c2ccc(Cl)cc2)C1 [Venetoclax] + C1CN(CCC1(C(=O)N[C@@H](CCO)C2=CC=C(C=C2)Cl)N)C3=NC=NC4=C3C=CN4 [Capivasertib] (first compound max 1 µM, 7x7, partner max 3 µM)	0.289	0.323	0.279	0.582	0.302	0.331	0.866	0.473	0.181	0.488	0.516	0.42	0.251	0.294	0.208	0.786	0.154	0.298	0.4	0.47
CN(C)CCCOc1ccc(-c2ccc3ncc4c(c3c2)n(C2CCOCC2)c(=O)n4C)cn1 [AZD0156] + C=CCn1c(=O)c2cnc(Nc3ccc(N4CCN(C)CC4)cc3)nc2n1-c1cccc(C(C)(C)O)n1 [AZD1775] (first compound max 1 µM, partner max 1 µM)	0.53	0.311	0.376	0.996	0.179	0.515	0.823	0.791	0.747	0.709	0.357	0.417	0.667	0.646	0.442	0.904	0.248	0.679	0.316	0.888
Cc1c2c(nn1C)CSCc1cc(n(C)n1)CSc1cc(c3ccccc3c1)OCCCc1c(C(=O)O)n(C)c3c-2c(Cl)ccc13 [AZD5991] + C[C@@H](Nc1cc(F)cc(F)c1)c1cc(C(=O)N(C)C)cc2c(=O)cc(N3CCOCC3)oc12 [AZD8186] (first compound max 1 µM, 7x7, partner max 3 µM)	0.304	0.189	0.704	0.342	0.29	0.306	0.767	0.656		1	1	0.71	0.313	0.339	0.153	0.47	0.168	0.254	0.45	1
CCc1c2c(nc3ccc(O)cc13)-c1cc3c(c(=O)n1C2)COC(=O)[C@]3(O)CC [SN-38] + O=C(c1cc(Cc2n[nH]c(=O)c3ccccc23)ccc1F)N1CCN(C(=O)C2CC2)CC1 [Olaparib] (first compound max 0.3 µM, 7x7, partner max 10 µM)	0.842	0.786	0.979	0.947	0.3	0.63		0.938	0.945	0.996		0.654	0.677	0.534	0.516	1		0.766		0.895
C=CCn1c(=O)c2cnc(Nc3ccc(N4CCN(C)CC4)cc3)nc2n1-c1cccc(C(C)(C)O)n1 [AZD1775] + O=C(c1cc(Cc2n[nH]c(=O)c3ccccc23)ccc1F)N1CCN(C(=O)C2CC2)CC1 [Olaparib] (first compound max 1 µM, partner max 10 µM)	0.434	0.362	0.402	1	0.256	0.515	0.827	0.853	0.823	0.792	0.412	0.332	0.696	0.6	0.42	0.915	0.302	0.698		0.902
NC1(C(=O)N[C@@H](CCO)c2ccc(Cl)cc2)CCN(c2ncnc3[nH]ccc23)CC1 [Capivasertib] + CCN(CCO)CCCOc1ccc2c(Nc3cc(CC(=O)Nc4cccc(F)c4)[nH]n3)ncnc2c1 [AZD2811] (first compound max 10 µM, 7x7, partner max 1 µM)	0.52	0.392	0.55	0.737		0.381	0.837	0.58	0.33	0.464	0.458	0.639	0.379	0.309	0.292	0.667	0.242	0.357	0.603	0.456
COc1nnc2ccc(N3CCC(c4ccc(OCCN5CCN(C)C(=O)[C@H]5C)cc4)CC3)nn12 [AZD5153] + CCN(CCO)CCCOc1ccc2c(Nc3cc(CC(=O)Nc4cccc(F)c4)[nH]n3)ncnc2c1 [AZD2811] (first compound max 1 µM, 7x7, partner max 1 µM)	0.574	0.542	0.691	0.9		0.463	0.952	0.668	0.521	0.673	0.789	0.653	0.26	0.389	0.556	0.696	0.429	0.657	0.362	0.666
